“Also recorded” adds a separate entry of the source.
Assays:
Format in all cases: in vivo, mice
IBA1 = IBA1 immunofluorescence (microglia), mean FL intensity; details: for mean IBA1 FL intensity with progression of COVID-19 infection (time post-inoculation): COVID-19 positive groups, 3, 6, 10 days
GFAP = GFAP immunofluorescence (reactive astrocytes), mean FL intensity; details: for mean GFAP FL intensity with progression of COVID-19 infection (time post-inoculation): COVID-19 positive groups, 3, 6, 10 days
pons and medulla = experiment: Cresyl violet staining, semi-qualitative morphology ranking; details: COVID-19 positive; for cresyl violet morphological rank vs (−) control: rank 1-3
[1] = tested on: myelin of the pons and medulla; experiment: Black-Gold II Myelin staining, semi-qualitative myelination ranking
[2] = COVID-19 positive, 6 days post-inoculation
[3] = COVID-19 positive, 3 days post-inoculation

Structure (SMILES)	mean IBA1 FL intensity with progression of COVID-19 infection (time post-inoculation) (IBA1)	mean GFAP FL intensity with progression of COVID-19 infection (time post-inoculation) (GFAP)	preventative effect in COVID-19 induced neuroinflammation (GFAP and IBA1 FL intensity trends) (GFAP; respiratory centers of the brain)	cresyl violet morphological rank vs (−) control (pons and medulla; 3 days post-inoculation)	cresyl violet morphological rank vs saline treatment (pons and medulla; 6 days post-inoculation)	cresyl violet morphological rank vs (−) control (pons and medulla; 6 days post-inoculation)	cresyl violet morphological rank vs saline treatment (pons and medulla; 10 days post-inoculation)	Black-Gold II myelination ranking [1, 2]	Black-Gold II myelination ranking across time points post-inoculation ([1]; regardless of COVID-19 status)	IBA1 FL intensity nonlinear fit over time, Best Fit (IBA1; COVID-19 positive groups)	FL intensity vs saline and ifenprodil treated groups (FIG. 6B) (IBA1; [3])	mean IBA1 FL intensity, COVID-19 positive vs negative group of same treatment (IBA1; sacrificed 10 days post-virus inoculation)	GFAP FL intensity nonlinear fit over time, Best Fit (GFAP; COVID-19 positive groups)	cresyl violet morphological rank vs (−) control (pons and medulla; 10 days post-inoculation)	Black-Gold II myelination ranking [1, 3]	Black-Gold II myelination ranking vs (−) control ([1]; COVID-19 positive, 10 days post-inoculation)	COVID-19 related changes in myelination, overall finding ([1]; respiratory centers of the brain, listed as Memantine)
CC(C(O)c1ccc(O)cc1)N1CCC(Cc2ccccc2)CC1 (stereo not shown) [ifenprodil]	significantly changed	significantly changed	did not have a preventative effect	no difference in morphological rank	increases morphological rank	increase in rankings	improve the morphological rank	increased myelination ranking	no differences; also recorded: no significant difference								
CC12CC3CC(C)(C1)CC(N)(C3)C2 [memantine]	increasing time point was not associated with decreasing mean IBA1 FL intensity; also recorded: no change	no change; also recorded: increasing time point was not associated with increasing mean GFAP FL intensity				significantly lower than the negative control	improve the morphological rank	decreased myelination rankings		Horizonal Line	decreased expression of GFAP; also recorded: slightly lower	significantly decreased; also recorded: slightly lower	Horizontal Line	morphology rankings similar to the negative control groups; also recorded: no longer a difference in morphological rank	decreased myelination rankings	not significantly different	signs of demyelination

— patent US20240350432A1, “CENTRAL NERVOUS SYSTEM MODULATORS AS COVID-19 THERAPEUTICS” (priority 2023, published 2024)
